Data taken from patent US7267953B2, “Method for identification of modulators of pre-adipocyte differentiation” (AstraZeneca AB, priority 2001, dated 2007).

Experiments:
[1] = tested on: mouse embryonic fibroblasts (MEF); assay: Adipocyte differentiation of retrovirus infected mouse embryonic fibroblasts (MEF), Oil Red O staining; format: cell-based; settings: Oil Red O at day 13 post-induction
From the text: The fibroblastic 3T3-L1 preadipocyte cells have the capability to differentiate to adipocytes when given the proper hormonal stimulation, usually a combination of dexamethasone, insulin and isobutylmethylxanthine, as opposed to NIH/3T3 where overexpression of adipocyte differentiating factors is necessary to get adipocyte development. Untransformed mouse embryonic fibroblasts (MEF) can also be forced to adipocyte differentiation using the same adipogenic factors; the efficiency is however much lower than with 3T3-L1. […] Stable clones were selected 2-3 days using puromycin (2 μg/ml) and surviving cells were grown to confluence. 3T3-L1 cells differentiate to adipocytes at high rate when all adipogenic inducers are present and this could make it difficult discriminate the effect of an additional adipogenic signal. The cells were therefore induced with dexamethasone (1 μM) alone for two days or in combination with darglitazone (0.5 μM) throughout the experiment to get a low differentiation rate. […] At day 13 post-induction adipate differentiation was measured by Oil Red O staining. […]

3T3-L1 preadipocytes = assay: Adipocyte differentiation of retrovirus infected 3T3-L1 preadipocytes, Oil Red O staining; format: cell-based, mouse; settings: vector or O/E-1 infected 3T3-L1; 0.5 μM in combination with dexamethasone (1 μM); stained at day 3, 4 and 7
From the text: The fibroblastic 3T3-L1 preadipocyte cells have the capability to differentiate to adipocytes when given the proper hormonal stimulation, usually a combination of dexamethasone, insulin and isobutylmethylxanthine, as opposed to NIH/3T3 where overexpression of adipocyte differentiating factors is necessary to get adipocyte development. Untransformed mouse embryonic fibroblasts (MEF) can also be forced to adipocyte differentiation using the same adipogenic factors; the efficiency is however much lower than with 3T3-L1. […] Stable clones were selected 2-3 days using puromycin (2 μg/ml) and surviving cells were grown to confluence. 3T3-L1 cells differentiate to adipocytes at high rate when all adipogenic inducers are present and this could make it difficult discriminate the effect of an additional adipogenic signal. The cells were therefore induced with dexamethasone (1 μM) alone for two days or in combination with darglitazone (0.5 μM) throughout the experiment to get a low differentiation rate. MEF on the other hand develop into adipocytes quite inefficiently and were thus induced with the more powerful adipogenic combination of dexamethasone (1 μM), insulin (5 μg/ml) isobutylmethylxanthine (0.115 mg/ml) and darglitazone (0.5 μM) for two days, insulin and darglitazone for two days and darglitazone alone all through the experiment. […]

[2] = tested on: NIH/3T3 mouse fibroblasts; assay: Adipocyte differentiation of retrovirus infected NIH/3T3 fibroblasts, Oil Red O staining; format: cell-based; settings: Oil Red O after 10 days
From the text: A classical way of studying the adipocyte differentiating potential of a gene is to overexpress it in either uncommitted NIH/3T3 fibroblasts or in 3T3-L1 preadipocytes using retroviral transfer. The adipocyte differentiating potential can then be assayed by microscopic examination and by staining with lipophilic dyes such as Oil Red O. O/E-1 was thus expressed in mouse NIH/3T3 fibroblasts, 3T3-L1 preadipocytes and mouse embryonic fibroblasts to investigate its adipocyte differentiating potential. cDNAs encoding mouse O/E-1, human O/E-1 and mouse PPARγ2 were cloned in the pBabepuro retrovirus vector. These retrovirus vectors as well as the empty vector were transiently transfected into Phoenix high efficiency packaging cells. Retroviruses containing supernatants were used to infect NIH/3T3 mouse fibroblasts. After puromycin (2 μg/ml) selection for two days, cells were allowed to grow to confluence after which adipogenic inducers were added (DIM, see above), after 10 days cells were stained with the lipophilic dye Oil Red O. As expected PPARγ induced some differentiation of NIH/3T3 mouse fibroblasts into lipid-containing cells that resembled cultured adipocytes in the presence of adipogenic inducers (FIG. 3). […] The ability of human O/E-1 to induce adipocyte differentiation of NIH/3T3 was also tested and found to be similar as that of mouse O/E-1 (Data not shown).

With Cc1oc(-c2ccccc2)nc1CCC(=O)c1ccc(CC2SC(=O)NC2=O)cc1 (stereo not drawn) [darglitazone] the adipocyte differentiation ([1]; human O/E-1 infected MEF) was “even further enhanced differentiation”, the “number of cells that developed into adipocytes” value ([1]; vector infected MEF, compared with vehicle) was “increased the number of cells that developed into adipocytes” and the “overall rate of adipocyte differentiation” value (3T3-L1 preadipocytes) was “overall rate of differentiation was enhanced”. The “differentiation into lipid-containing adipocyte-like cells” value ([2]; PPARγ2 infected NIH/3T3, 0.5 μM present throughout with adipogenic inducers (DIM)) was “dramatic increase”, the development to adipocytes ([2]; mouse O/E-1 infected NIH/3T3, adipogenic inducers (DIM), 0.5 μM) was “greatly enhanced” and the differentiation into adipocytes ([2]; vector infected NIH/3T3, adipogenic inducers (DIM), 0.5 μM) was “No differentiation was observed”.
